Data taken from US20260022142A1, “MACROCYCLIC IMMUNOMODULATORS” (Bristol-Myers Squibb Company, priority 2022, published 2026).
Numbered stars: 1 amine (or outer) side, 2 acyl side, 3 side chain; on linkers, the order of the positions; unused ones are H or OH. Bridge positions count the residues as written; N and C are the ends. Square brackets hold non-standard residues; d marks the D form. Peptide text beside a SMILES is read from it. * marks the point of attachment. Phe(3-CF3) = N[C@@H](Cc1cccc(C(F)(F)F)c1)C(=O)O; Phe(4-COOH) = N[C@@H](Cc1ccc(C(=O)O)cc1)C(=O)O; Bip = N[C@@H](Cc1ccc(-c2ccccc2)cc1)C(=O)O; NH(CH2)14COOH = O=C(O)CCCCCCCCCCCCCCN*; Phe(3-Me) = Cc1cccc(C[C@H](N)C(=O)O)c1; γGlu = O=C(O)[C@H](CCC(=O)[*:2])N[*:1]; βAsp = O=C(O)[C@H](CC(=O)[*:2])N[*:1]; NH(CH2)12COOH = O=C(O)CCCCCCCCCCCCN*; Val(3-OH) = CC(C)(O)[C@H](N)C(=O)O; Cha = N[C@@H](CC1CCCCC1)C(=O)O; aThr = C[C@H](O)[C@H](N)C(=O)O; Dap(Me) = CNC[C@H](N)C(=O)O; dDab = NCC[C@@H](N)C(=O)O; Carboxymethyl = O=C(O)C*; Nle = CCCC[C@H](N)C(=O)O; Orn = NCCC[C@H](N)C(=O)O; Dab = NCC[C@H](N)C(=O)O; AEEA = NCCOCCOCC(=O)O

Each molecule was assayed against T1, PD-1/PD-L1 interaction (PE-labeled human PD-L1-Ig binding to Jurkat cell line over-expressing human PD-1) (Homo sapiens, UniProt Q15116) (assay: Jurkat-PD-1 Cell Binding High-Content Screening Assay (CBA)). Settings: Jurkat cell line over-expressing human PD-1; PE-labeled PD-L1-Ig 20 nM final; read-out: Jurkat hPD1-PDL1 IC50.
T1 construct: expressed in transfected cells; host or cells: Jurkat
T1 sequence (Q15116 25-288): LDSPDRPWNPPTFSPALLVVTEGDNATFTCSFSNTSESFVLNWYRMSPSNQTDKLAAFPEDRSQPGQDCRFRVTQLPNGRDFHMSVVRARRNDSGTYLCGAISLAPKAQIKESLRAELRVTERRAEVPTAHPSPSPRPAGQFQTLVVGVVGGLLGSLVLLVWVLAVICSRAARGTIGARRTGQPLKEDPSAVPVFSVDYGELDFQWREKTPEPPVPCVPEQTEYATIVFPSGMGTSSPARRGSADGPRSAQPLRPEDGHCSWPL
Type: cell-based
Procedure, shortened: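 First, compound is added to PD-1-expressing Jurkat cells in serum-containing DMEM and left 2 h at 37° C. Next, PE-conjugated PD-L1-Ig is introduced at 20 nM final concentration for 1 hour. Finally, cells are fixed in 4% paraformaldehyde with Hoechst 33342, washed and imaged.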
CC(C)C[C@H]1NC(=O)[C@H](CCCN)NC(=O)[C@H](Cc2ccc(C(=O)O)cc2)NC(=O)[C@H](Cc2ccc(-c3ccccc3)cc2)NC(=O)[C@H](Cc2ccc(C(=O)O)cc2)NC(=O)[C@H](Cc2cccc(C(F)(F)F)c2)NC(=O)[C@H](CC(=O)O)NC(=O)[C@H](Cc2ccc(OCC(=O)O)cc2)NC(=O)[C@H](Cc2cnc[nH]2)NC(=O)CSC[C@@H](C(=O)N[C@@H](CCN)C(=O)NCCOCCOCC(=O)N[C@@H](CC(=O)N[C@@H](CC(=O)O)C(=O)NCCCCCCCCCCCCCCC(=O)O)C(=O)O)NC(=O)[C@H](CCC(=O)O)NC(=O)[C@H](C(C)(C)O)NC(=O)[C@H](CC2CCCCC2)NC(=O)[C@H](CCN)NC1=O [Compound 3889] ({CH2CO}-HY(Carboxymethyl)D[Phe(3-CF3)][Phe(4-COOH)][Bip][Phe(4-COOH)][Orn][dL][Dab][Cha][Val(3-OH)]EC[Dab][AEEA][βAsp]D-{NH(CH2)14COOH}; thioether N-14) showed an IC50 of 272 nM.
With CC(C)C[C@H]1NC(=O)[C@H](CCCN)NC(=O)[C@H](Cc2ccc(C(=O)O)cc2)NC(=O)[C@H](Cc2ccc(-c3ccccc3)cc2)NC(=O)[C@H](Cc2ccc(C(=O)O)cc2)NC(=O)[C@H](Cc2cccc(C(F)(F)F)c2)NC(=O)[C@H](CC(=O)O)NC(=O)[C@H](Cc2ccc(OCC(=O)O)cc2)NC(=O)[C@H](C(C)C)NC(=O)CSC[C@@H](C(=O)N[C@@H](CCN)C(=O)NCCOCCOCC(=O)N[C@@H](CCC(=O)O)C(=O)N[C@@H](CCC(=O)NCCCCCCCCCCCCCCC(=O)O)C(=O)O)NC(=O)[C@H](CC(=O)O)NC(=O)[C@H](C(C)(C)O)NC(=O)[C@H](CC2CCCCC2)NC(=O)[C@H](CCN)NC1=O [Compound 3890] ({CH2CO}-VY(Carboxymethyl)D[Phe(3-CF3)][Phe(4-COOH)][Bip][Phe(4-COOH)][Orn][dL][Dab][Cha][Val(3-OH)]DC[Dab][AEEA]EE(NH(CH2)14COOH)-OH; thioether N-14) the IC50 was 434 nM.
Molecule Cc1cccc(C[C@@H]2NC(=O)[C@H](CC(=O)O)NC(=O)[C@H](Cc3ccc(OCC(=O)O)cc3)NC(=O)[C@H](CC(C)C)NC(=O)CSC[C@@H](C(=O)N[C@@H](CCN)C(=O)NCCOCCOCC(=O)N[C@@H](CCC(=O)O)C(=O)N[C@@H](CCC(=O)NCCOCCOCC(=O)NCCCCCCCCCCCCCCC(=O)O)C(=O)O)NC(=O)[C@H](CC(=O)O)NC(=O)[C@H](C(C)(C)O)NC(=O)[C@H](CC3CCCCC3)NC(=O)[C@H](CCN)NC(=O)[C@@H](CC(C)C)NC(=O)[C@H](CCCN)NC(=O)[C@H](Cc3ccc(C(=O)O)cc3)NC(=O)[C@H](Cc3ccc(-c4ccccc4)cc3)NC(=O)[C@H](Cc3ccc(C(=O)O)cc3)NC2=O)c1 [Compound 3892] ({CH2CO}-LY(Carboxymethyl)D[Phe(3-Me)][Phe(4-COOH)][Bip][Phe(4-COOH)][Orn][dL][Dab][Cha][Val(3-OH)]DC[Dab][AEEA]E[γGlu][AEEA]-{NH(CH2)14COOH}; thioether N-14) has an IC50 of 388 nM.
CCCC[C@@H]1NC(=O)CSC[C@@H](C(=O)N[C@@H](CCN)C(=O)NCCOCCOCC(=O)N[C@@H](CO)C(=O)N[C@H](CCC(=O)NCCCCCCCCCCCCCCC(=O)O)C(=O)O)NC(=O)[C@H](CC(=O)O)NC(=O)[C@H](C(C)(C)O)NC(=O)[C@H](CC2CCCCC2)NC(=O)[C@H](CCN)NC(=O)[C@@H](CC(C)C)NC(=O)[C@H](CCCN)NC(=O)[C@H](Cc2ccc(OCC(=O)O)cc2)NC(=O)[C@H](Cc2ccc(-c3ccccc3)cc2)NC(=O)[C@H](Cc2ccc(C(=O)O)cc2)NC(=O)[C@H](Cc2cccc(C)c2)NC(=O)[C@H](CC(=O)O)NC(=O)[C@H](Cc2ccc(OCC(=O)O)cc2)NC1=O [Compound 3893] ({CH2CO}-[Nle]Y(Carboxymethyl)D[Phe(3-Me)][Phe(4-COOH)][Bip]Y(Carboxymethyl)[Orn][dL][Dab][Cha][Val(3-OH)]DC[Dab][AEEA]S[dE](NH(CH2)14COOH)-OH; thioether N-14) showed an IC50 of 369 nM.
CCCC[C@@H]1NC(=O)CSC[C@@H](C(=O)N[C@@H](CCN)C(=O)NCCOCCOCC(=O)N[C@@H](CO)C(=O)N[C@H](CCC(=O)NCCCCCCCCCCCCCCC(=O)O)C(=O)O)NC(=O)[C@H](Cc2cnc[nH]2)NC(=O)[C@H](C(C)(C)O)NC(=O)[C@H](CC2CCCCC2)NC(=O)[C@H](CCN)NC(=O)[C@@H](CC(C)C)NC(=O)[C@H](CCCN)NC(=O)[C@H](Cc2ccc(OCC(=O)O)cc2)NC(=O)[C@H](Cc2ccc(-c3ccccc3)cc2)NC(=O)[C@H](Cc2ccc(C(=O)O)cc2)NC(=O)[C@H](Cc2cccc(C)c2)NC(=O)[C@H](CC(=O)O)NC(=O)[C@H](Cc2ccc(OCC(=O)O)cc2)NC1=O [Compound 3894] ({CH2CO}-[Nle]Y(Carboxymethyl)D[Phe(3-Me)][Phe(4-COOH)][Bip]Y(Carboxymethyl)[Orn][dL][Dab][Cha][Val(3-OH)]HC[Dab][AEEA]S[dE](NH(CH2)14COOH)-OH; thioether N-14) was tested, and the IC50 was 106 nM.
CNC[C@@H]1NC(=O)CSC[C@@H](C(=O)N[C@@H](CCN)C(=O)NCCOCCOCC(=O)N[C@@H](CO)C(=O)NCCCCCCCCCCCCCCC(=O)O)NC(=O)[C@H](CCC(=O)O)NC(=O)[C@H](C(C)C)NC(=O)[C@H](CC2CCCCC2)NC(=O)[C@H](CCN)NC(=O)[C@@H](CC(C)C)NC(=O)[C@H](CCCN)NC(=O)[C@H](Cc2ccc(C(=O)O)cc2)NC(=O)[C@H](Cc2ccc(-c3ccccc3)cc2)NC(=O)[C@H](Cc2ccc(C(=O)O)cc2)NC(=O)[C@H](Cc2cccc(C(F)(F)F)c2)NC(=O)[C@H](CC(=O)O)NC(=O)[C@H](Cc2ccc(OCC(=O)O)cc2)NC1=O [Compound 3895] ({CH2CO}-[Dap(Me)]Y(Carboxymethyl)D[Phe(3-CF3)][Phe(4-COOH)][Bip][Phe(4-COOH)][Orn][dL][Dab][Cha]VEC[Dab][AEEA]S-{NH(CH2)14COOH}; thioether N-14) showed an IC50 of 49.4 nM.
With CNC[C@@H]1NC(=O)CSC[C@@H](C(=O)N[C@@H](CCN)C(=O)NCCOCCOCC(=O)NCCCCCCCCCCCCCCC(=O)O)NC(=O)[C@H](CCC(=O)O)NC(=O)[C@H](C(C)C)NC(=O)[C@H](CC2CCCCC2)NC(=O)[C@H](CCN)NC(=O)[C@@H](CC(C)C)NC(=O)[C@H](CCCN)NC(=O)[C@H](Cc2ccc(C(=O)O)cc2)NC(=O)[C@H](Cc2ccc(-c3ccccc3)cc2)NC(=O)[C@H](Cc2ccc(C(=O)O)cc2)NC(=O)[C@H](Cc2cccc(C(F)(F)F)c2)NC(=O)[C@H](CC(=O)O)NC(=O)[C@H](Cc2ccc(C(=O)O)cc2)NC1=O [Compound 3896] ({CH2CO}-[Dap(Me)][Phe(4-COOH)]D[Phe(3-CF3)][Phe(4-COOH)][Bip][Phe(4-COOH)][Orn][dL][Dab][Cha]VEC[Dab][AEEA]-{NH(CH2)14COOH}; thioether N-14) the IC50 was 224 nM.
CCCC[C@@H]1NC(=O)CSC[C@@H](C(=O)N[C@H](CCN)C(=O)NCCOCCOCC(=O)N[C@@H](CCC(=O)NCCOCCOCC(=O)NCCCCCCCCCCCCC(=O)O)C(=O)O)NC(=O)[C@H](CCC(=O)O)NC(=O)[C@H](C(C)C)NC(=O)[C@H](CC2CCCCC2)NC(=O)[C@H](CCN)NC(=O)[C@@H](CC(C)C)NC(=O)[C@H](CCCN)NC(=O)[C@H](Cc2ccc(OCC(=O)O)cc2)NC(=O)[C@H](Cc2ccc(-c3ccccc3)cc2)NC(=O)[C@H](Cc2ccc(C(=O)O)cc2)NC(=O)[C@H](Cc2cccc(C(F)(F)F)c2)NC(=O)[C@H](CC(=O)O)NC(=O)[C@H](Cc2ccc(OCC(=O)O)cc2)NC1=O [Compound 3897] ({CH2CO}-[Nle]Y(Carboxymethyl)D[Phe(3-CF3)][Phe(4-COOH)][Bip]Y(Carboxymethyl)[Orn][dL][Dab][Cha]VEC[dDab][AEEA][γGlu][AEEA]-{NH(CH2)12COOH}; thioether N-14) was tested, and the IC50 was 63.6 nM.
Molecule CC(=O)NCCCC[C@@H]1NC(=O)[C@H](C(C)(C)O)NC(=O)[C@H](CC2CCCCC2)NC(=O)[C@H](CCN)NC(=O)[C@@H](CC(C)C)NC(=O)[C@H](CCCN)NC(=O)[C@H](Cc2ccc(OCC(=O)O)cc2)NC(=O)[C@H](Cc2ccc(-c3ccccc3)cc2)NC(=O)[C@H](Cc2ccc(C(=O)O)cc2)NC(=O)[C@H](Cc2cccc(C(F)(F)F)c2)NC(=O)[C@H](CC(=O)O)NC(=O)[C@H](Cc2ccc(OCC(=O)O)cc2)NC(=O)[C@H]([C@H](C)O)NC(=O)CSC[C@@H](C(=O)N[C@H](CCN)C(=O)NCCOCCOCC(=O)N[C@@H](CCC(=O)NCCOCCOCC(=O)NCCCCCCCCCCCCC(=O)O)C(=O)O)NC1=O [Compound 3899] ({CH2CO}-[aThr]Y(Carboxymethyl)D[Phe(3-CF3)][Phe(4-COOH)][Bip]Y(Carboxymethyl)[Orn][dL][Dab][Cha][Val(3-OH)]K(Ac)C[dDab][AEEA][γGlu][AEEA]-{NH(CH2)12COOH}; thioether N-14) has an IC50 of 27.4 nM.
In the case of CC(C)C[C@H]1NC(=O)[C@H](CCCN)NC(=O)[C@H](Cc2ccc(C(=O)O)cc2)NC(=O)[C@H](Cc2ccc(-c3ccccc3)cc2)NC(=O)[C@H](Cc2ccc(C(=O)O)cc2)NC(=O)[C@H](Cc2cccc(C(F)(F)F)c2)NC(=O)[C@H](CC(=O)O)NC(=O)[C@H](Cc2ccc(OCC(=O)O)cc2)NC(=O)[C@H](CO)NC(=O)CSC[C@@H](C(=O)N[C@@H](CCN)C(=O)NCCOCCOCC(=O)N[C@@H](CO)C(=O)N[C@@H](CO)C(=O)N[C@@H](CO)C(=O)N[C@@H](CO)C(=O)N[C@@H](CCC(=O)NCCCCCCCCCCCCCCC(=O)O)C(=O)O)NC(=O)[C@H](CO)NC(=O)[C@H](C(C)(C)O)NC(=O)[C@H](CC2CCCCC2)NC(=O)[C@H](CCN)NC1=O [Compound 3900] ({CH2CO}-SY(Carboxymethyl)D[Phe(3-CF3)][Phe(4-COOH)][Bip][Phe(4-COOH)][Orn][dL][Dab][Cha][Val(3-OH)]SC[Dab][AEEA]SSSSE(NH(CH2)14COOH)-OH; thioether N-14), the IC50 is reported as 185 nM.
